Test systems include 786-0; A549; ACHN; COLO 205; HL-60; HT-29; Hs-578T; M14; MDA-MB-231; MDA-N; MOLT-4; NCI-H226; NCI/ADR-RES; SF-539; SK-MEL-5; SNB-75; SW-620; TK-10; UACC-62; Malme-3M.
Common to all, as to test: growth of human tumour cells (NCI), 48 h

Molecules are shown by their SMILES.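 Grown in 96-well plates, cells were treated for 48 hours with each compound at five concentrations. Insufficient inhibition: endpoint recorded as highest concentration tested. At the GI50, growth is halved.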 Active and inactive are the calls of the source. No stated cut-off is given here; in the data, active = GI50 up to about 1.1 µM and inactive = higher.

Turning to `O=C1OC(C2(O)OC(=O)c3ccccc32)c2ccccc21` (stereo unspecified), the GI50 in the test on 786-0, in the test with A549, in the test with ACHN, with COLO 205, in the test with HL-60 and in the test with HT-29 was > 100 µM (inactive) in each case. Further, the GI50 with Hs-578T, with M14, in the test with MDA-MB-231, with MDA-N, in the test with MOLT-4 and in the test with NCI-H226 was > 100 µM (inactive) throughout. The GI50 with NCI/ADR-RES, in the test on SF-539, in the test on SK-MEL-5, in the test with SNB-75, with SW-620 and in the test with TK-10 was > 100 µM (inactive) in each case. Further, the GI50 in the test on UACC-62 is > 100 µM (inactive).
In the case of `CC1(O)CC23CC1CCC2(C)C12CCCC(C)(C(=O)O1)C2CC3O` (stereo unspecified), the GI50 in the test with 786-0 was > 100 µM (inactive); in the test with A549 it was > 100 µM (inactive); in the test with ACHN, > 100 µM (inactive); in the test with COLO 205, > 100 µM (inactive); in the test with HL-60 it was > 10 µM (inactive); with HT-29, > 100 µM (inactive). In addition, the GI50 with Hs-578T, in the test on M14, in the test with MDA-MB-231, in the test with MDA-N, in the test on Malme-3M and in the test with NCI-H226 was > 100 µM (inactive) each time. Further, the GI50 with NCI/ADR-RES, in the test with SF-539, in the test on SK-MEL-5, in the test with SNB-75, with SW-620 and in the test with TK-10 was > 100 µM (inactive) each time. The GI50 in the test with UACC-62 was > 100 µM (inactive).
Regarding `O=C(O)CNc1ncc2c(n1)-c1ccccc1OC2`, the GI50 was > 100 µM (inactive) with 786-0; > 100 µM (inactive) in the test on A549; > 100 µM (inactive) in the test on ACHN; > 100 µM (inactive) in the test with COLO 205; 64.3 µM (inactive) in the test with HL-60; > 100 µM (inactive) in the test on HT-29. The GI50 in the test with Hs-578T, in the test on M14, in the test on MDA-MB-231, with MDA-N, in the test on MOLT-4 and in the test with Malme-3M was > 100 µM (inactive) in each case. The GI50 with NCI/ADR-RES, in the test on SF-539, with SK-MEL-5, with SNB-75, with SW-620 and with TK-10 was > 100 µM (inactive) each time. Further, the GI50 with UACC-62 is > 100 µM (inactive).
As for `CCN1C(Cl)=NS(=O)(=O)c2ccccc21`, the GI50 in the test on 786-0 was 19.3 µM (inactive); with A549, > 100 µM (inactive); in the test with ACHN, 16.5 µM (inactive); with COLO 205 it was 14.9 µM (inactive); in the test on HL-60, 3.87 µM (inactive); with HT-29, 18.8 µM (inactive). Also, the GI50 in the test on Hs-578T was 36.9 µM (inactive); with M14, 14.9 µM (inactive); in the test on MDA-MB-231, 23 µM (inactive); in the test with MDA-N it was 29.1 µM (inactive); in the test on MOLT-4, 10.2 µM (inactive); with NCI-H226 it was 21.6 µM (inactive). Moreover, the GI50 in the test with NCI/ADR-RES is 26.5 µM (inactive); in the test with SF-539, 15.9 µM (inactive); in the test on SK-MEL-5 it was 13.6 µM (inactive); in the test with SW-620 it was 28.1 µM (inactive); in the test with TK-10, 18.5 µM (inactive); with UACC-62 it was 9.06 µM (inactive).
For `COCc1cc2c(cc1/C=C/[N+](=O)[O-])OCO2`, the GI50 with 786-0 was 16.9 µM (inactive); in the test on A549 it was 17.1 µM (inactive); in the test with ACHN it was 17.1 µM (inactive); in the test on COLO 205, 18.2 µM (inactive); in the test with HL-60, 23.4 µM (inactive); in the test on HT-29, 18.5 µM (inactive). In addition, the GI50 in the test with Hs-578T is 19.5 µM (inactive); in the test on M14, 16.7 µM (inactive); with MDA-MB-231, 20.4 µM (inactive); with MDA-N it was 17.7 µM (inactive); in the test on MOLT-4, > 100 µM (inactive); with NCI-H226, 19.8 µM (inactive). The GI50 is 25.2 µM (inactive) in the test with NCI/ADR-RES; 20.7 µM (inactive) with SF-539; 19.4 µM (inactive) with SK-MEL-5; 17.9 µM (inactive) with SNB-75; 17.7 µM (inactive) in the test with SW-620; 16.9 µM (inactive) with TK-10. Moreover, the GI50 in the test on UACC-62 is 17.9 µM (inactive).
For the compound `Nc1ccc(Oc2ccc(C34CC5CC6C3CC3CC4C(C5)C6(c4ccc(Oc5ccc(N)cc5)cc4)C3)cc2)cc1`, the GI50 with 786-0 is 13.4 µM (inactive); with A549 it was 12.6 µM (inactive); in the test on ACHN it was 3.17 µM (inactive); in the test with COLO 205, < 0.01 µM (active); in the test on HL-60, 7.14 µM (inactive); in the test on HT-29, 10.2 µM (inactive). The GI50 is 25.4 µM (inactive) with Hs-578T; 0.583 µM (active) with M14; 9.08 µM (inactive) in the test with MDA-MB-231; 0.334 µM (active) in the test with MDA-N; 7.98 µM (inactive) in the test with MOLT-4; 0.216 µM (active) with Malme-3M. For the same compound, the GI50 in the test on NCI-H226 is 22.8 µM (inactive); in the test with NCI/ADR-RES it was > 74.6 µM (inactive); with SK-MEL-5, 0.561 µM (active); with SW-620 it was 19.7 µM (inactive); with TK-10, 21.6 µM (inactive); with UACC-62, 2.74 µM (inactive).
On to `CCc1ccccc1NC(=O)C(=O)CC(=O)c1sc(Nc2ccccc2Cl)nc1C`, for which the GI50 in the test on 786-0 is 27.7 µM (inactive); in the test on A549, 24 µM (inactive); with ACHN, 30.5 µM (inactive); in the test on COLO 205, 22.2 µM (inactive); in the test on HL-60, 47 µM (inactive); with HT-29, 22.1 µM (inactive). Moreover, the GI50 with Hs-578T was 46.5 µM (inactive); with M14, 27.7 µM (inactive); with MDA-MB-231, 27 µM (inactive); with MDA-N it was 28.8 µM (inactive); in the test with MOLT-4, 14.9 µM (inactive); in the test on NCI-H226 it was 29 µM (inactive). The GI50 in the test on NCI/ADR-RES is 25.8 µM (inactive); with SF-539 it was 24.4 µM (inactive); with SK-MEL-5 it was 17.6 µM (inactive); in the test on SW-620 it was 25.6 µM (inactive); with TK-10, 59.6 µM (inactive); in the test with UACC-62, > 100 µM (inactive).
On to `COc1ccc2[nH]c3cc4c(=O)c5cc(OC)ccc5[nH]c4cc3c(=O)c2c1`, for which the GI50 with 786-0 is 99.1 µM (inactive); in the test on A549, > 100 µM (inactive); with ACHN it was > 100 µM (inactive); in the test with COLO 205, > 100 µM (inactive); in the test with HL-60 it was 10.8 µM (inactive); in the test with HT-29, > 100 µM (inactive). Moreover, the GI50 in the test with Hs-578T, in the test with M14, with MDA-MB-231, in the test on MDA-N, in the test on MOLT-4 and in the test with Malme-3M was > 100 µM (inactive) throughout. Also, the GI50 in the test with NCI-H226 was > 100 µM (inactive); in the test on NCI/ADR-RES, > 100 µM (inactive); in the test on SK-MEL-5, > 100 µM (inactive); in the test with SNB-75, 26.9 µM (inactive); in the test on SW-620, > 100 µM (inactive); with TK-10, > 100 µM (inactive). The GI50 with UACC-62 was > 100 µM (inactive).
In the case of `CC1=NN2C=Nc3c(c(-c4ccc(Cl)cc4)cn3-c3ccc(C)cc3)C2N1` (stereo unspecified), the GI50 with 786-0 is 19.5 µM (inactive); in the test on A549 it was > 100 µM (inactive); in the test with ACHN, > 100 µM (inactive); in the test with COLO 205, > 100 µM (inactive); in the test on HL-60 it was > 100 µM (inactive); with HT-29, 64.4 µM (inactive). Moreover, the GI50 in the test with Hs-578T is 11.3 µM (inactive); in the test with M14, > 100 µM (inactive); with MDA-MB-231 it was 71.1 µM (inactive); in the test with MDA-N, > 100 µM (inactive); in the test on Malme-3M it was > 100 µM (inactive); with NCI-H226, > 100 µM (inactive). For the same compound, the GI50 was 55.8 µM (inactive) in the test with NCI/ADR-RES; 87.1 µM (inactive) in the test with SF-539; 87.9 µM (inactive) with SK-MEL-5; 30.5 µM (inactive) in the test with SNB-75; > 100 µM (inactive) in the test with SW-620; 42.8 µM (inactive) in the test with TK-10. In addition, the GI50 in the test on UACC-62 is 61 µM (inactive).
As for `Cc1cc(O)c(C(C)C)cc1/N=C/c1ccccc1O`, the GI50 is 5.73 µM (inactive) in the test with 786-0; 18.5 µM (inactive) with A549; 11.5 µM (inactive) with ACHN; 25.5 µM (inactive) in the test with COLO 205; 0.303 µM (active) with HL-60; 24.2 µM (inactive) in the test on HT-29. Besides, the GI50 in the test on Hs-578T is 8.73 µM (inactive); in the test with M14, 15.4 µM (inactive); in the test on MDA-MB-231, 1.73 µM (inactive); with MDA-N it was 3.72 µM (inactive); in the test on MOLT-4, 0.301 µM (active); with Malme-3M, 14.7 µM (inactive). For the same compound, the GI50 was 5.52 µM (inactive) with NCI-H226; 3.12 µM (inactive) with NCI/ADR-RES; 30.8 µM (inactive) in the test with SF-539; 6.08 µM (inactive) in the test with SK-MEL-5; 1.98 µM (inactive) in the test on SW-620; 13.1 µM (inactive) in the test with TK-10. In the test with UACC-62, the GI50 is 8.91 µM (inactive).
Take `C=C1C2CCC3C4(C)CCCC(C)(C(=O)O)C4CCC3(C2)C1OC(=O)/C(C)=C/C` (stereo unspecified): the GI50 in the test on 786-0 was 60.7 µM (inactive); in the test on A549 it was 35.9 µM (inactive); with ACHN it was 36.1 µM (inactive); in the test with COLO 205 it was 29.6 µM (inactive); with HL-60 it was 29.9 µM (inactive); in the test on HT-29, 33.4 µM (inactive). Besides, the GI50 with Hs-578T is 35.2 µM (inactive); in the test on M14, 20.8 µM (inactive); in the test with MDA-MB-231 it was 20.9 µM (inactive); in the test on MDA-N, 22.6 µM (inactive); with Malme-3M, 30 µM (inactive); in the test on NCI-H226, 36 µM (inactive). Besides, the GI50 is 21.1 µM (inactive) in the test on NCI/ADR-RES; 27.5 µM (inactive) in the test on SF-539; 27.4 µM (inactive) with SK-MEL-5; 70.8 µM (inactive) in the test on SNB-75; 61.7 µM (inactive) with SW-620; 72.8 µM (inactive) in the test with TK-10. Also, the GI50 with UACC-62 is 25.6 µM (inactive).

Source of the values: ChEMBL document CHEMBL1201862, “PubChem BioAssay data set” (2004).
